Here are results for 2 molecules from patent US20050026189A1, “Microbial operons” (priority 2003, published 2005).

Test [1] concerns E. coli transcribing antisense RNA to rplL and rplJ (AS-rplL/J). The test is described as follows: microbe, parasite or virus in culture. Type of test: cell-based. Particulars: for Fold Increase in Sensitivity: IC50 without IPTG versus IC50 with 400 μM IPTG; for Sensitivity Increased?: statistically significant decrease in the IC50 value in the presence of inducer (IPTG). On the procedure:
The effectiveness of the above assays was validated using proliferation-required genes from E. coli which were identified using procedures similar to those described above. Antibiotics of various chemical classes and modes of action were purchased from Sigma Chemicals (St. Louis, Mo.). Stock solutions were prepared by dissolving each antibiotic in an appropriate aqueous solution based on information provided by the manufacturer. The final working solution of each antibiotic contained no more than 0.2% (w/v) of any organic solvent. To determine their potency against a bacterial strain engineered for transcription of an antisense comprising a nucleotide sequence complementary to a proliferation-required 50S ribosomal protein, each antibiotic was serially diluted two- or three-fold in growth medium supplemented with the appropriate antibiotic for maintenance of the antisense construct. At least ten dilutions were prepared for each antibiotic. 25 μL aliquots of each dilution were transferred to discrete wells of a 384-well microplate (the assay plate) using a multi-channel pipette. Quadruplicate wells were used for each dilution of an antibiotic under each treatment condition (plus and minus inducer). Each assay plate contained twenty wells for cell growth controls (growth medium replacing antibiotic), ten wells for each treatment (plus and minus inducer, in this example IPTG). Assay plates were usually divided into the two treatments: half the plate containing induced cells and an appropriate concentrations of inducer (in this example IPTG) to maintain the state of induction, the other half containing non-induced cells in the absence of IPTG.
Cells for the assay were prepared as follows. Bacterial cells containing a construct, from which transcription of antisense nucleic acid comprising a nucleotide sequence complementary to rplL and rplJ (AS-rplL/J), which encode proliferation-required 50S ribosomal subunit proteins, is inducible in the presence of IPTG, were grown into exponential growth (OD600 0.2 to 0.3) and then diluted 1:100 into fresh medium containing either 400 μM or 0 μM inducer (IPTG). These cultures were incubated at 37° C. for 2.5 hr. After a 2.5 hr incubation, induced and non-induced cells were respectively diluted into an assay medium at a final OD600 value of 0.0004. The medium contained an appropriate concentration of the antibiotic for the maintenance of the antisense construct. In addition, the medium used to dilute induced cells was supplemented with 800 μM IPTG so that addition to the assay plate would result in a final IPTG concentration of 400 μM. Induced and non-induced cell suspensions were dispensed (25 μl/well) into the appropriate wells of the assay plate as discussed previously. The plate was then loaded into a plate reader, incubated at constant temperature, and cell growth was monitored in each well by the measurement of light scattering at 595 nm. Growth was monitored every 5 minutes until the cell culture attained a stationary growth phase. For each concentration of antibiotic, a percentage inhibition of growth was calculated at the time point corresponding to mid-exponential growth for the associated control wells (no antibiotic, plus or minus IPTG). For each antibiotic and condition (plus or minus IPTG), a plot of percent inhibition versus log of antibiotic concentration was generated and the IC50 determined.

In test [2] the test system is E. coli transcribing IPTG-inducible antisense clones. The test is described as follows: Cell-based assay: antibiotic sensitivity of E. coli transcribing antisense to ribosomal protein genes or to genes not involved in protein synthesis (FIGS. 8, 9). Further details: species or system Escherichia coli. The text has this: The effectiveness of the above cell-based assay was validated using constructs transcribing antisense RNA to the proliferation required Escherichia coli genes rplL, rplJ, and rplW encoding ribosomal proteins L7/L12, L10 and L23 respectively. These proteins are essential components of the protein synthesis apparatus of the cell and as such are required for proliferation. These constructs were used to test the effect of antisense transcription on cell sensitivity to antibiotics known to bind to the ribosome and thereby inhibit protein synthesis. Constructs transcribing antisense RNA to several other genes (elaD, visC, yohH, and atpE/B), the products of which are not involved in protein synthesis were used for comparison. […]
The cell populations containing vectors producing AS-elaD or AS-rplW were exposed to a range of IPTG concentrations in liquid medium to obtain the growth inhibitory dose curve for each clone (FIG. 7). First, seed cultures were grown to a particular turbidity measured by the optical density (OD) of the growth solution. […] The cells were grown for up to 15 hours and the extent of growth was determined by measuring the optical density of the cultures at 600 nm. […]

With `CC[C@H]1OC(=O)[C@H](C)[C@@H](O[C@H]2C[C@@](C)(OC)[C@@H](O)[C@H](C)O2)[C@H](C)[C@@H](O[C@@H]2O[C@H](C)C[C@H](N(C)C)[C@H]2O)[C@](C)(O)C[C@@H](C)C(=O)[C@H](C)[C@@H](O)[C@]1(C)O` [Erythromycin], in test [1], the “Fold Increase in Sensitivity” value is reported as 40 Fold and the “Sensitivity Increased?” value is recorded as “Yes”. Moreover, the sensitivity to erythromycin result in test [2] (initial experiments, clones transcribing antisense to protein synthesis genes (L7/L12 & L10, L7/L12 alone, L22, L18, rRNA, Elongation Factor G)) is given as “increased sensitivity”.
Turning to `CCn1cc(C(=O)O)c(=O)c2ccc(C)nc21` [Nalidixic acid], in test [1], the “Fold Increase in Sensitivity” value stood at 1 Fold and the “Sensitivity Increased?” value is “No”. Further, the “sensitivity to antibiotics which do not inhibit protein synthesis” value in test [2] (clone transcribing antisense to rplL and rplJ (AS-rplL/J)) is recorded as “does not show increased sensitivity”.
